Consider 14 molecules from patent publication EP0260829A2 (priority 1986, dated 1988).

As usually defined, the IC50 is the concentration that inhibits the measured activity by half.

Some results are limits rather than exact numbers.

This experiment concerns anti-PCP antibody from ATCC HB 9198. The class given is binding, rat. To be noted: for IC50: read-out: Molar IC50.

For the molecule `Oc1ccc(Cl)c(Cl)c1Cl` [2,3,4-Trichlorophenol], the “Percent Cross Reactivity With PCP” value was 0.5%.
On to `Oc1c(Cl)c(Cl)cc(Cl)c1Cl` [2,3,5,6-Tetrachlorophenol], for which the “Percent Cross Reactivity With PCP” value is recorded as 42%.
On to `Oc1cc(Cl)cc(Cl)c1Cl` [2,3,5-Trichlorophenol], for which the “Percent Cross Reactivity With PCP” value worked out at 0.5%.
As for `Oc1c(Cl)ccc(Cl)c1Cl` [2,3,6-Trichlorophenol], the “Percent Cross Reactivity With PCP” value is listed as 8.8%.
As to `Oc1cccc(Cl)c1Cl` [2,3-Dichlorophenol], the “Percent Cross Reactivity With PCP” value is on record as 0% and the concentration for half-maximal inhibition (IC50) is greater than 1 mM.
In the case of `Oc1ccc(Cl)cc1Cl` [2,4-Dichlorophenol], the “Percent Cross Reactivity With PCP” value stood at 0% and the IC50 is greater than 1 mM.
For `Oc1cc(Cl)ccc1Cl` [2,5-Dichlorophenol] the same measures were 0% and greater than 1 mM.
As to `Oc1c(Cl)cccc1Cl` [2,6-Dichlorophenol], the “Percent Cross Reactivity With PCP” value was 1.8%.
Consider `Oc1ccc(Cl)c(Cl)c1` [3,4-Dichlorophenol], for which the “Percent Cross Reactivity With PCP” value is recorded as 0% and the IC50 was greater than 1 mM.
For `Oc1cc(Cl)cc(Cl)c1` [3,5-Dichlorophenol], the “Percent Cross Reactivity With PCP” value was determined as 0% and the IC50 is greater than 1 mM.
For `Oc1ccc(Cl)cc1` [4-Chlorophenol] the same measures were 0% and greater than 1 mM.
With `Clc1cc(Cl)c(Cl)c(Cl)c1Cl` [Pentachlorobenzene], the “Percent Cross Reactivity With PCP” value is given as 0%, the “reaction with the antipentachlorophenol antibody” value is “fails to react” and the IC50 was greater than 1 mM.
Take `Oc1ccccc1` [Phenol]: the “Percent Cross Reactivity With PCP” value amounted to 0% and the 50% inhibitory concentration (IC50) was greater than 1 mM.
In the case of `Oc1c(Cl)c(Cl)c(O)c(Cl)c1Cl` [Tetrachlorohydroquinone], the “Percent Cross Reactivity With PCP” value amounted to 0.8%.
